Source: patent US7618968B2, “Aryl triazines as LPAAT-β inhibitors and uses thereof” (Cell Therapeutics, Inc., priority 2001, dated 2009)

These compounds were tested against T1, LPAAT-β (Homo sapiens, UniProt O15120) (assay: LPAAT-β cell-free assay (colorimetric primary screen, radiometric/fluorescent TLC secondary assay)). Settings: Sf9 cell membrane overexpressing LPAAT-β.
T1 construct: the full-length human LPAAT-β cDNA was amplified by PCR; poly-histidine tag (from pFastBac HTc vector) (N); made in house; host or cells: Sf9 insect cells (baculovirus); membrane fraction used
T1 sequence (O15120 24-278): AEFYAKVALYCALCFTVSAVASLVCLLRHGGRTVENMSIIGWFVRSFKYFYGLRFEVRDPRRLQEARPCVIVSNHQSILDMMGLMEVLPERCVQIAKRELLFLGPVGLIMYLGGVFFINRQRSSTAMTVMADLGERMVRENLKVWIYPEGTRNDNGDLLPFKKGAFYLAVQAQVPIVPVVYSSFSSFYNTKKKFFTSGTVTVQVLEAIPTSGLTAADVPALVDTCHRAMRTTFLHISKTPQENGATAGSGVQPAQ
Format: biochemical
Excerpt: A. Production of Recombinant LPAAT-β for Assays
For the construction of Baculovirus expression vectors, the full-length human LPAAT-β cDNA was amplified by PCR from the DNA template pCE9.LPAAT-β (West et al., DNA Cell Biol. 16:691-701 (1997)) using the primers 5′-[…] […] […] […]-3′ (olpb1F; SEQ ID NO:1) and 5′-[…] […] […]-3′ (olpb1R; SEQ ID NO:2). The ˜870 bp fragment generated was reamplified by PCR using the primers 5′[…] […] […] […] ATC-3′ (olpb2F; SEQ ID NO:3) and 5′-[…] […] […]-3′ (olpb1R; SEQ ID NO:2). The ˜890 bp fragment generated was then cleaved with Sal I and Xba I for insertion into pFastBac™ HTc vector (Life Technologies, Gaithersberg, Md.) between the Sal I and Xba I sites for the generation of the plasmid pFB.LPAAT-β. This plasmid was then transformed into E. coli DH10Bac™ (Life Technologies, Gaithersberg, Md.) for the generation of recombinant Bacmid DNA for transfection in HighFive (Invitrogen, San Diego, Calif.) or SF9 insect cells for the production of recombinant Baculovirus stocks using the protocol described in the Bac-to-Bac® Baculovirus Expression System (Life Technologies, Gaithersberg, Md.), a eukaryotic expression system for generating recombinant baculovirus through site-specific transposition in E. coli. Viral stocks harvested from the transfected cells can then be used to infect fresh insect cells for the subsequence expression of LPAAT-β fusion protein with a poly-histidine tag and a myc-epitope near its N-terminus. The membrane fraction from these Sf9 cells would be the source of LPAAT enzyme.
B. Preparation of Cell Membranes from Sf9 Cells
For the preparation of membranes from Sf9 Cells, all steps are performed on ice or at 4° C. Sf9 cell pellets (˜10^8 cells) were thawed and resuspended in 1-2 ml of buffer A (20 mM Hepes, pH 7.5, 1 mM DTT, 1 mM EDTA, 20% w/v glycerol, 1 mM Benzamidine, 1 μg/ml soybean trypsin inhibitor (SBTI), 1 μg/ml pepstatin A) w/o DTT but with 1 mM Pefabloc. The cells were lysed by sonication using a Branson Sonifier at output=2, duty cycle=2, 10 pulses each at 10s. with the tip of small sonicator probe submerged but not touching the walls. DTT was then added to 1 mM from a 1 M stock. The samples were centrifuged at 1500 rpm for 5 min. The low speed supernatant was saved and centrifuged (TLA 100.3 rotor, polycarbonate tubes, 2 ml/tube or 1.5 ml/tube minimum) at 100000×g for 1 hr. The high speed pellet was resuspend in Buffer A with a probe sonicator (10 pulses @ output #2 and duty cycle 20%) as a source of LPAAT enzyme.
C. Assay of LPAAT-β Activity
LPAAT-β catalyzes the transfer of an acyl group from a donor such as acyl-CoA to LPA. The transfer of the acyl group from acyl-CoA to LPA leads to the release of free CoA, which can be reacted with the thiol reagent, 5,5′-dithiobis(2-nitrobenzoic acid) (DTNB). The reaction between DTNB and the free sulfhydryl group from CoA generates a yellow-colored product, 3-carboxylato-4-nitrothiophenolate (CNP), that absorbs at 413 nm. LPAAT-β derived from Sf9 cell membrane overexpressing LPAAT-β were resuspended in HEPES saline buffer (20 mM HEPES pH 7.5, 150 mM NaCl), 1 mg/ml BSA and 72 μl aliquots were distributed into 96-well microtiter plates. 8 μl of compound of interest at 200 μM dissolved in 100% DMSO was added into each well. 20 μl of 1 mM 18:1-CoA and 1 mM sn-1-18:1 lysoPA was then added to each well to initiate the reaction and allowed to run at room temperature for 25 min. 100 μl of 1 mM DTNB in 100% ethanol was then added to each well to quench the reaction and for color development. The absorbance at 405 nm, measured using a spectrophotometer plate reader, is proportional to the activity of LPAAT-β in the sample. This colorimetric assay was used for the high throughput screening of LPAAT inhibitors.
For `COc1ccc(Cl)cc1-c1nc(N)nc(Nc2ccc(Cl)cc2)n1` [Example 1, 6-(5-Chloro-2-methoxyphenyl)-N-(4-chlorophenyl)-[1,3,5]triazine-2,4-diamine], the IC50 was 57 nM. Work on `COc1ccc(Cl)cc1-c1nc(N)nc(Nc2ccccc2)n1` [Example 2, 6-(5-Chloro-2-methoxyphenyl)-N-phenyl-[1,3,5]triazine-2,4-diamine] yielded an IC50 of 2300 nM. `COc1ccc(Cl)cc1-c1nc(N)nc(Nc2ccc([N+](=O)[O-])cc2)n1` [Example 3, 6-(5-Chloro-2-methoxyphenyl)-N-(4-nitrophenyl)-[1,3,5]triazine-2,4-diamine] was tested, and the IC50 was 22 nM. In the case of `Nc1nc(Nc2ccc(Cl)cc2)nc(-c2cc(Cl)ccc2Cl)n1` [Example 4, 6-(2,5-Dichlorophenyl)-N-(4-chlorophenyl)-[1,3,5]triazine-2,4-diamine], the IC50 is reported as 50 nM. `COc1ccc(Cl)cc1-c1nc(N)nc(Nc2ccc3c(c2)OCO3)n1` [Example 5, N-Benzo[1,3]dioxol-5-yl-6-(5-chloro-2-methoxyphenyl)-[1,3,5]triazine-2,4-diamine] showed an IC50 of 280 nM. Work on `CCOc1ccc(Cl)cc1-c1nc(N)nc(Nc2ccc(Cl)cc2)n1` [Example 7, 6-(5-Chloro-2-ethoxyphenyl)-N-(4-Chlorophenyl)-[1,3,5]triazine-2,4-diamine] yielded an IC50 of 140 nM. `COc1ccc(Cl)cc1-c1nc(N)nc(Nc2ccc(Cl)c(Cl)c2)n1` [Example 8, 6-(5-Chloro-2-methoxyphenyl)-N-(3,4-dichlorophenyl)-[1,3,5]triazine-2,4-diamine] was tested, and the IC50 was 140 nM. Work on `Cc1ccc(Cl)cc1-c1nc(N)nc(Nc2ccc(Cl)cc2)n1` [Example 9, 6-(5-Chloro-2-methylphenyl)-N-(4-Chlorophenyl)-[1,3,5]triazine-2,4-diamine] yielded an IC50 of 55 nM. Work on `COc1ccc(Cl)cc1-c1nc(N)nc(Nc2ccc(Br)cc2)n1` [Example 10, N-2-(4-Bromophenyl)-6-(5-chloro-2-methoxyphenyl)-[1,3,5]triazine-2,4-diamine] yielded an IC50 of 76 nM. `Cc1ccc(Cl)cc1-c1nc(N)nc(Nc2ccc(Br)cc2)n1` [Example 11, N-2-(4-Bromophenyl)-6-(5-chloro-2-methylphenyl)-[1,3,5]triazine-2,4-diamine] was tested, and the IC50 was 60 nM. Compound `Nc1nc(Nc2ccc(Br)cc2)nc(-c2cc(Cl)ccc2Cl)n1` [Example 12, N-2-(4-Bromophenyl)-6-(2,5-dichlorophenyl)-[1,3,5]triazine-2,4-diamine] has an IC50 of 70 nM. `Cc1ccc(Cl)cc1-c1nc(N)nc(Nc2ccc3cn[nH]c3c2)n1` [Example 13, 6-(5-Chloro-2-Methyl-Phenyl)-N-(1H-Indazol-6-yl)-[1,3,5]Triazine-2,4-Diamine] showed an IC50 of 55 nM. Work on `Cc1ccc(C)c(-c2nc(N)nc(Nc3ccc(Cl)cc3)n2)c1` [Example 14, N-(4-chlorophenyl)-6-(2,5-dimethylphenyl)-[1,3,5]triazine-2,4-diamine] yielded an IC50 of 250 nM. `COc1ccc(Cl)cc1-c1nc(N)nc(Nc2ccc(F)cc2)n1` [Example 15, 6-(5-Chloro-2-methoxyphenyl)-N-(4-fluorophenyl)-[1,3,5]triazine-2,4-diamine] showed an IC50 of 430 nM. In the case of `Nc1nc(Nc2ccc(Cl)cc2)nc(-c2cccc(Cl)c2)n1` [Example 16, N-(4-chlorophenyl)-6-(3-chlorophenyl)-[1,3,5]triazine-2,4-diamine], the IC50 is reported as 800 nM. In the case of `COc1ccc(OC)c(-c2nc(N)nc(Nc3ccc(Cl)cc3)n2)c1` [Example 17, N-(4-chlorophenyl)-6-(2,5-dimethoxyphenyl)-[1,3,5]triazine-2,4-diamine], the IC50 is reported as 1000 nM. `Cc1ccc(Cl)cc1-c1nc(N)nc(Nc2ccc3c(c2)OCO3)n1` [Example 19, N-Benzo[1.3]dioxol-5-yl-6-(5-chloro-2-methyl-phenyl)-[1,3,5]triazine-2,4-diamine] was tested, and the IC50 was 200 nM. `Cc1ccc(Cl)cc1-c1nc(Cl)nc(Nc2ccc(Br)cc2)n1` [Example 20, (4-Bromo-phenyl)-[4-chloro-6-(5-chloro-2-methyl-phenyl)-[1,3,5]triazin-2-yl]-amine] was tested, and the IC50 was 10 nM. Compound `COc1nc(Nc2ccc(Br)cc2)nc(-c2cc(Cl)ccc2C)n1` [Example 21] has an IC50 of 200 nM.
